# Laboratory results as given in PMC7413254 (Nature Communications, 2020).
# Read-outs that look alike come from different tables or passages of the source.
# What was measured:
# Details in all cases: trans-stimulation, solute 2 mM
# [1] = system: non-expressing oocytes; type: cell-based, Xenopus laevis
# In short: (§1)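 Oocytes (ten per treatment, ≥4 independent frogs/days) were preloaded by injecting VF-6 in 25 nL ND96 at pH 5.0, 5.5, 6.0 or 7.0, or Na^+-free choline buffer, then uptake run 1.5 h, 27.5 °C, ND96 pH 5.5 by default. Internal concentrations assumed ~400 nL oocyte volume.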
# [2] = molecular target: T1, PfNT1 (Plasmodium falciparum, UniProt Q8IDM6); assay: cell-based; type: cell-based
# T1 construct: expressed in transfected cells; host or cells: Xenopus laevis oocytes (stage V-VI), cRNA-injected
# T1 sequence (Q8IDM6 whole entry): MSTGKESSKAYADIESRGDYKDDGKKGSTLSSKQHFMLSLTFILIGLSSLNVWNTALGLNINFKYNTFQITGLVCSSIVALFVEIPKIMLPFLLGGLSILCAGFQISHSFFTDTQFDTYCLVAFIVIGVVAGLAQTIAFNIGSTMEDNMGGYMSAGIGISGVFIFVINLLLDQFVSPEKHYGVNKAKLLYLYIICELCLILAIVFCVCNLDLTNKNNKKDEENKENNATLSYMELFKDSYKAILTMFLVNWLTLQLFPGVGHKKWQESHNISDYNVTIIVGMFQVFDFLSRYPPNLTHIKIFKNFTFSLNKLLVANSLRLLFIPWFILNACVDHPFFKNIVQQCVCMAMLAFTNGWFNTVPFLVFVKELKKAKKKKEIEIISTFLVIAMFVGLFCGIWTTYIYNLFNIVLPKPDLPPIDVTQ
# In short: as §1
# [3] = molecular target: PfCRT^3D7 (Plasmodium falciparum, UniProt Q8IBZ9); assay: cell-based; type: cell-based
# PfCRT^3D7, sequence (Q8IBZ9 59-398): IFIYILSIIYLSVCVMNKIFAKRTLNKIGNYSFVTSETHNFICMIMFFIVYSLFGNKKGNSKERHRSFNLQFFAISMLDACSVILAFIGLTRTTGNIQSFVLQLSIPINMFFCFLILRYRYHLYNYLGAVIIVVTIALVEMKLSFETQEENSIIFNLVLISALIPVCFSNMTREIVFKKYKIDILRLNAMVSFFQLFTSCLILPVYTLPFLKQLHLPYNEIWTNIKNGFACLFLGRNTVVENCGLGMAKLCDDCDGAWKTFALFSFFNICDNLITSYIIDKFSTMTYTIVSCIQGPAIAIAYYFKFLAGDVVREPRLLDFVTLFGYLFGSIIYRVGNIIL
# In short: as §1
# [4] = molecular target: PfCRT^Dd2 (Plasmodium falciparum, UniProt Q9N623, A220S/I356T/K76T/M74I/N326S/N75E/Q271E/R371I); assay: cell-based; type: cell-based
# PfCRT^Dd2, sequence (Q9N623 whole entry A220S/I356T/K76T/M74I/N326S/N75E/Q271E/R371I): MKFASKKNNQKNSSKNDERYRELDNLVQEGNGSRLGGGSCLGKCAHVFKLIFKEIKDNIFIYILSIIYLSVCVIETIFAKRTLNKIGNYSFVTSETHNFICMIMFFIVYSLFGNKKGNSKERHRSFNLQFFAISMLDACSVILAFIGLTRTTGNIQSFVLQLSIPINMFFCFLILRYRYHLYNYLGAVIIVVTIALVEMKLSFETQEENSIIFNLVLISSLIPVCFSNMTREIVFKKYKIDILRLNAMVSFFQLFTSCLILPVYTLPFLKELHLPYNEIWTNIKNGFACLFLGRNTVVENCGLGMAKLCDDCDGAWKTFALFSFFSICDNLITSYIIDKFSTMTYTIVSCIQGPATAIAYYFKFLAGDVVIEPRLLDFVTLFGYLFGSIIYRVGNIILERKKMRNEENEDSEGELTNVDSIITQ
# In short: as §1
# [5] = molecular target: PfCRT^Ecu1110 (Plasmodium falciparum, UniProt Q9N623, A220S/I356L/K76T/N326D); assay: cell-based; type: cell-based
# PfCRT^Ecu1110, sequence (Q9N623 whole entry A220S/I356L/K76T/N326D): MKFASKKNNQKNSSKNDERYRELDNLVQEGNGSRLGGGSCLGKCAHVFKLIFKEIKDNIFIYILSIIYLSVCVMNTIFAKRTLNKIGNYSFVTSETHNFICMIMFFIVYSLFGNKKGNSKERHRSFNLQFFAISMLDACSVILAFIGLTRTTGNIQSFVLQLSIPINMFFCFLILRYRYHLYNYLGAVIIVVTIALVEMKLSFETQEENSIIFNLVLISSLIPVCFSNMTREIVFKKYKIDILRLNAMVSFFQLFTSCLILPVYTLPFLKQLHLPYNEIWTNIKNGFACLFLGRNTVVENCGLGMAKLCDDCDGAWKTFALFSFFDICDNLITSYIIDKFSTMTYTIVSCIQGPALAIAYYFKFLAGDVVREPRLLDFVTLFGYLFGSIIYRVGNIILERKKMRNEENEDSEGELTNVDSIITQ
# In short: as §1
substance,measurement,setting,value
PVNF [VF-6-derived peptide],"[3H]CQ transport, non-expressing oocytes",[1]; Experiment 1,2.32 % PfCRTDd2 control
same,"[3H]CQ transport, non-expressing oocytes",[1]; Experiment 2,2.21 % PfCRTDd2 control
same,"[3H]CQ transport, non-expressing oocytes",[1]; Experiment 3,2.25 % PfCRTDd2 control
same,"[3H]CQ transport, non-expressing oocytes",[1]; Experiment 4,2.16 % PfCRTDd2 control
same,"[3H]CQ transport, PfNT1",[2]; Experiment 1,3.55 % PfCRTDd2 control
same,"[3H]CQ transport, PfNT1",[2]; Experiment 2,3.73 % PfCRTDd2 control
same,"[3H]CQ transport, PfNT1",[2]; Experiment 3,3.85 % PfCRTDd2 control
same,"[3H]CQ transport, PfNT1",[2]; Experiment 4,3.52 % PfCRTDd2 control
same,"[3H]CQ transport, PfCRT3D7",[3]; Experiment 1,16.17 % PfCRTDd2 control
same,"[3H]CQ transport, PfCRT3D7",[3]; Experiment 2,15.91 % PfCRTDd2 control
same,"[3H]CQ transport, PfCRT3D7",[3]; Experiment 3,16.12 % PfCRTDd2 control
same,"[3H]CQ transport, PfCRT3D7",[3]; Experiment 4,16.15 % PfCRTDd2 control
same,"[3H]CQ transport, PfCRTDd2",[4]; Experiment 1,115.75 % PfCRTDd2 control
same,"[3H]CQ transport, PfCRTDd2",[4]; Experiment 2,122.53 % PfCRTDd2 control
same,"[3H]CQ transport, PfCRTDd2",[4]; Experiment 3,112.64 % PfCRTDd2 control
same,"[3H]CQ transport, PfCRTDd2",[4]; Experiment 4,109.74 % PfCRTDd2 control
same,"[3H]CQ transport, PfCRTEcu1110",[5]; Experiment 1,47.86 % PfCRTDd2 control
same,"[3H]CQ transport, PfCRTEcu1110",[5]; Experiment 2,40.15 % PfCRTDd2 control
same,"[3H]CQ transport, PfCRTEcu1110",[5]; Experiment 3,37.75 % PfCRTDd2 control
same,"[3H]CQ transport, PfCRTEcu1110",[5]; Experiment 4,41.78 % PfCRTDd2 control
